The record followed here is PubChem BioAssay AID651829 (Broad Institute, 2012).

In the test the target is Kelch-like ECH-associated protein 1 (Homo sapiens) (UniProt Q14145). Put plainly: Keap1 Kelch domain binders by melting shift, dose response, orthogonal assay for Keap1-Nrf2 interaction inhibitor project, biophysical, thermal shift, RT-PCR instrument, dry powder (AID 651829). Conditions: Recombinant Keap1 Kelch domain, Sypro Orange, hits give high values.

SMILES strings stand for the structures. Several values for one entry are separate records, joined by “and”; a condition that tells them apart may be missing. Identical values can stand only once. Activity calls are given as the source filed them.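 How the source made its calls: active means max delta Tm melting temperature shift above 1 degree C at some tested dose; inactive means the rest.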

Kelch-like ECH-associated protein 1 (Homo sapiens), sequence (Q14145 whole entry, looked up, the tested form may be a part): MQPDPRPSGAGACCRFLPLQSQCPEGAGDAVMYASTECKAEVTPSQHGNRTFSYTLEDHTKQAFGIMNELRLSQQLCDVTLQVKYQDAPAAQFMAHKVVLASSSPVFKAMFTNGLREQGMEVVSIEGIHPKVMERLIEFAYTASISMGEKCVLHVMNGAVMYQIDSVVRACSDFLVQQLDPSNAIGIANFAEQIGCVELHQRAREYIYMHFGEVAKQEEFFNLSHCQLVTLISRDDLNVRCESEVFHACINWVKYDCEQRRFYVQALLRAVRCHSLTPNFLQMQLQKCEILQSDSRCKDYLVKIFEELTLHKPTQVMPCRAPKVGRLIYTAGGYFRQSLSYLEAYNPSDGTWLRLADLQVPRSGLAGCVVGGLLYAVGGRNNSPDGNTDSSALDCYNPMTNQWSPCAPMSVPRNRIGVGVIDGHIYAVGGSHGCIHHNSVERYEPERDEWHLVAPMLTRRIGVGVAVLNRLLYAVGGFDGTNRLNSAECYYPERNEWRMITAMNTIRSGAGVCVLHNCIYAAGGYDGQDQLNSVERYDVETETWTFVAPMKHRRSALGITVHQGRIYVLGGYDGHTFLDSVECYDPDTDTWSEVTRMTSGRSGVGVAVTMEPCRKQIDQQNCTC

For the compound `O=C(O)CCCC(=O)N1CCc2ccccc2C1CN1C(=O)c2ccccc2C1=O` (centres undefined), the max delta Tm (at 10 µM, top dose 38 µM) is 0.13 °C (inactive).

As for `COC(=O)CNc1nc(NS(=O)(=O)c2c(C)cc(C)cc2C)c2ccccc2n1`, the max delta Tm (at 0.3 µM, top dose 38 µM) is 0.26 °C (inactive).

With `O=C1c2ccccc2C(=O)N1C[C@H]1NCCc2ccccc21`, the max delta Tm (at 1.2 µM, top dose 38 µM) was 0.003 °C (inactive). Consider `O=C1c2ccccc2C(=O)N1C[C@@H]1c2ccccc2CCN1C(=O)OCc1ccccc1`, for which the max delta Tm (at 0.16 µM, top dose 38 µM) was -0.028 °C (inactive).

Consider `Cc1ccc(S(=O)(=O)Nc2cc(C(C(=O)OC(C)C)C(=O)C(F)(F)F)c(O)c3ccccc23)cc1` (centres undefined), for which the max delta Tm (at 38 µM, top dose 38 µM) was 6.81 degrees C. In the case of `O=C(O)C1CCCCC1C(=O)N1CCc2ccccc2C1CN1C(=O)Cc2ccccc2C1=O` (centres undefined), the max delta Tm (at 38 µM, top dose 38 µM) is 1.59 degrees C.

As for `Cc1ccc(S(=O)(=O)NNc2nc(N3CC(O)CC3C(=O)O)nc3ccccc23)cc1` (centres undefined), the max delta Tm (at 1.2 µM, top dose 38 µM) was 0.172 °C (inactive). As for `O=C(O)/C=C\C(=O)N1CCc2ccccc2C1CN1C(=O)c2ccccc2C1=O` (centres undefined), the max delta Tm (at 38 µM, top dose 38 µM) was 1.14 degrees C. Regarding `O=C(O)[C@H]1CCCC[C@H]1C(=O)N1CCc2ccccc2[C@H]1CNc1nc(Cl)nc2ccccc12`, the max delta Tm (at 0.16 µM, top dose 38 µM) is 0.129 °C (inactive). With `O=C(O)[C@H]1C2C=CC(C2)[C@H]1C(=O)N1CCc2ccccc2C1CN1C(=O)c2ccccc2C1=O` (some centres undefined), the max delta Tm (at 38 µM, top dose 38 µM) is 1.86 degrees C. With `Cc1cc(C)c(S(=O)(=O)Nc2cc(C(C(=O)OC(C)C)C(=O)C(F)(F)F)c(O)c3ccccc23)c(C)c1` (centres undefined), under “at 19.5 µM, top dose 19.5 µM”, the max delta Tm was 11.4 degrees C. Regarding `COC(=O)[C@@H]1CCCC[C@@H]1C(=O)N1CCc2ccccc2[C@H]1CN1C(=O)c2ccccc2C1=O`, the max delta Tm (at 1.2 µM, top dose 38 µM) is -0.023 °C (inactive). Turning to `O=C(O)C1CCCCC1C(=O)Nc1ccccc1CN1C(=O)c2ccccc2C1=O` (centres undefined), the max delta Tm (at 2.6 µM, top dose 38 µM) is 0.138 °C (inactive).

Turning to `Cc1ccccc1S(=O)(=O)Nc1cc(C(C(=O)OC(C)C)C(=O)C(F)(F)F)c(O)c2ccccc12` (centres undefined), the max delta Tm (at 38 µM, top dose 38 µM) is 7.77 degrees C.

Consider `C[C@H](NC(=O)C1CCCC[C@H]1C(=O)O)c1ccccc1` (mixture of isomers), for which, under “at 10 µM, top dose 38 µM”, the max delta Tm was -0.003 °C (inactive). On to `O=C(Oc1cc(CN2C(=O)c3ccccc3C2=O)c2ccccc2[n+]1[O-])c1cccc(Cl)c1`, for which the max delta Tm (at 2.6 µM, top dose 38 µM) was 0.062 °C (inactive). In the case of `COc1ccccc1CCNC(=O)[C@@H]1c2ccccc2CCN1C(=O)C1CCCCC1C(=O)O` (some centres undefined), the max delta Tm is, setting by setting: (at 0.3 µM, top dose 38 µM) 0.192 °C (inactive); (at 19.5 µM, top dose 38 µM) 0.102 °C (inactive).

On to `O=C(NCCCN1CCOCC1)c1ccccc1C(=O)NC[C@@H]1c2ccccc2CCN1C(=O)C1CCCCC1C(=O)O` (some centres undefined), for which the max delta Tm (at 0.16 µM, top dose 38 µM) is 0.217 °C (inactive).

On to `Cc1cc(C)c(S(=O)(=O)Nc2nc(C(C(=O)OC(C)C)C(=O)C(F)(F)F)nc3ccccc23)c(C)c1` (centres undefined), for which the max delta Tm (at 2.6 µM, top dose 38 µM) is 0.113 °C (inactive). On to `Cc1ccc(S(=O)(=O)NC2=CC(=N[C@@H](C)C(=O)OC(C)(C)C)C(=O)c3ccccc32)c(C)c1`, for which the max delta Tm (at 19.5 µM, top dose 38 µM) was 0.3 °C (inactive). In the case of `O=C(O)[C@H]1CCCC[C@H]1C(=O)N1CCc2ccccc2[C@H]1CNS(=O)(=O)c1ccccc1`, the max delta Tm (at 38 µM, top dose 38 µM) was 0.368 °C (inactive). For the compound `COC(=O)[C@@H]1CCCC[C@@H]1C(=O)N1CCc2ccccc2[C@@H]1CN1C(=O)c2ccccc2C1=O`, the max delta Tm (at 0.6 µM, top dose 38 µM) was -0.035 °C (inactive). With `Cc1cc(C)c(S(=O)(=O)Nc2nc(N(C)C)nc3ccccc23)c(C)c1`, the max delta Tm (at 0.16 µM, top dose 38 µM) is 0.107 °C (inactive). In the case of `Cc1cc(C)c(S(=O)(=O)Nc2cc(C(C(=O)OCc3ccccc3)C(=O)OCc3ccccc3)c(O)c3ccccc23)c(C)c1`, under “at 10 µM, top dose 38 µM”, the max delta Tm was 0.088 °C (inactive). As for `Cc1ccc(S(=O)(=O)NNc2nc(NCC(N)=O)nc3ccccc23)cc1`, under “at 0.3 µM, top dose 38 µM”, the max delta Tm was 0.22 °C (inactive). With `NC(=O)[C@H]1CCCC[C@H]1C(=O)N1CCc2ccccc2[C@H]1CN1C(=O)c2ccccc2C1=O`, the max delta Tm (at 38 µM, top dose 38 µM) is 1.34 degrees C. On to `O=S(=O)(Nc1nc(NCC2CCCCC2)nc2ccccc12)c1ccccc1`, for which the max delta Tm (at 0.3 µM, top dose 38 µM) was 0.21 °C (inactive). As for `O=C(NC[C@@H]1c2ccccc2CCN1C(=O)[C@@H]1CCCC[C@@H]1C(=O)O)c1ccccc1CO`, the max delta Tm (at 38 µM, top dose 38 µM) is 1.92 degrees C. The same measure, in the same setting: next, `NC(=O)c1ccccc1C(=O)NC[C@@H]1c2ccccc2CCN1C(=O)[C@@H]1CCCC[C@@H]1C(=O)O`: 0.771 °C (inactive). As for `COc1ccc(CCN=C2C=C(NS(=O)(=O)c3c(C)cc(C)cc3C)c3ccccc3C2=O)cc1`, the max delta Tm (at 2.6 µM, top dose 38 µM) was 0.288 °C (inactive). For the compound `O=C(O)C1CCCCC1C(=O)N1CCCCC1CN1C(=O)c2ccccc2C1=O` (centres undefined), for the setting “at 2.6 µM, top dose 38 µM”, the max delta Tm is -0.027 °C (inactive). As for `O=C(O)Cc1ccccc1C(=O)N1CCc2ccccc2[C@H]1CN1C(=O)c2ccccc2C1=O`, the max delta Tm (at 38 µM, top dose 38 µM) is 4.85 degrees C. On the same count and under the same terms, next, `O=C(O)C1CCCCC1C(=O)N1CCc2ccccc2C1CN1Cc2ccccc2C1=O` (centres undefined): 5.56 degrees C.

Turning to `O=C(O)CC(=O)N1CCc2ccccc2C1CN1C(=O)c2ccccc2C1=O` (centres undefined), under “at 10 µM, top dose 38 µM”, the max delta Tm is -0.045 °C (inactive).

In the case of `CCOC(=O)C(C(=O)OCC)c1nc(NS(=O)(=O)c2c(C)cc(C)cc2C)c2ccccc2n1`, where the note is “at 2.6 µM, top dose 38 µM”, the max delta Tm was 0.045 °C (inactive). In the case of `O=C(O)[C@H]1CCCC[C@H]1C(=O)N1CCc2ccccc2C1` (racemic), the max delta Tm (at 0.16 µM, top dose 38 µM) is -0.041 °C (inactive).

`O=C(O)[C@H]1CCCC[C@H]1C(=O)N1CCc2ccccc2C1CCN1C(=O)c2ccccc2C1=O` (some centres undefined): the max delta Tm (at 0.6 µM, top dose 38 µM) was 0.157 °C (inactive) and 0.069 °C (inactive). As for `O=C(O)C1CCCCC1C(=O)N1CCc2ccccc2C1CN1C(=O)c2ccccc2S1(=O)=O` (centres undefined), the max delta Tm (at 38 µM, top dose 38 µM) is 3.85 degrees C. On the same count and under the same terms, next, `O=C(NCCO)c1ccccc1C(=O)NC[C@@H]1c2ccccc2CCN1C(=O)C1CCCCC1C(=O)O` (some centres undefined): 1.77 degrees C. With `O=C(O)c1ccccc1C(=O)N1CCc2ccccc2C1CN1C(=O)c2ccccc2C1=O` (centres undefined), the max delta Tm (at 2.6 µM, top dose 38 µM) is 0.017 °C (inactive). For the compound `O=C1c2ccccc2C(=O)N1C[C@@H]1c2ccccc2CCN1C(=O)C1CCCCC1`, the max delta Tm (at 38 µM, top dose 38 µM) is 0.208 °C (inactive). Turning to `O=C(O)C1CCCCC1C(=O)N1CCc2ccccc2[C@H]1C(=O)NCCc1ccccc1` (some centres undefined), the max delta Tm (at 0.16 µM, top dose 38 µM) was 0.168 °C (inactive). `CC(C)OC(=O)C(C(=O)C(F)(F)F)c1cc(NS(=O)(=O)c2ccccc2)c2ccccc2c1O` (centres undefined): the max delta Tm (at 38 µM, top dose 38 µM) is 4.43 degrees C. Take `O=C(O)[C@H]1CCCC[C@H]1C(=O)N1CCC2=C(CCCC2)C1CN1C(=O)c2ccccc2C1=O` (some centres undefined): the max delta Tm is 0.172 °C (inactive) (at 0.16 µM, top dose 38 µM) and 2.69 degrees C (at 38 µM, top dose 38 µM). Regarding `O=C(NCCc1ccccc1)c1ccccc1C(=O)NC[C@@H]1c2ccccc2CCN1C(=O)C1CCCCC1C(=O)O` (some centres undefined), the max delta Tm (at 38 µM, top dose 38 µM) is 2.14 degrees C. `Cc1cc(C)c(S(=O)(=O)Nc2ncnc3ccccc23)c(C)c1`: under “at 1.2 µM, top dose 38 µM”, the max delta Tm was 0.086 °C (inactive). Regarding `Cc1ccc(S(=O)(=O)Nc2cc(C(C(=O)OC(C)C)C(=O)C(F)(F)F)c(O)c3ccccc23)c(C)c1` (centres undefined), the max delta Tm (at 38 µM, top dose 38 µM) is 9.26 degrees C. For `CC(C)CNc1nc(NS(=O)(=O)c2ccccc2)c2ccccc2n1`, the max delta Tm (at 0.6 µM, top dose 38 µM) is 0.095 °C (inactive). Turning to `O=C(NC[C@@H]1c2ccccc2CCN1C(=O)[C@@H]1CCCC[C@@H]1C(=O)O)c1ccc(CCl)cc1`, for the setting “at 38 µM, top dose 38 µM”, the max delta Tm was 0.364 °C (inactive). As to `CC(=O)Nc1cc(NS(=O)(=O)c2c(C)cc(C)cc2C)c2ccccc2c1O`, the max delta Tm (at 5 µM, top dose 38 µM) is 0.953 °C (inactive). In the case of `COC(=O)C(C(=O)OC)c1cc(NS(=O)(=O)c2c(C)cc(C)cc2C)c2ccccc2c1O`, the max delta Tm (at 38 µM, top dose 38 µM) is 3.82 degrees C. For `Cc1cc(C)c(S(=O)(=O)Nc2nc(NCCO)nc3ccccc23)c(C)c1`, for the setting “at 0.16 µM, top dose 38 µM”, the max delta Tm is 0.147 °C (inactive).
